Results taken from ChEMBL document CHEMBL3774345, “Synthesis of new diarylamides with pyrimidinyl pyridine scaffold and evaluation of their anti-proliferative effect on cancer cell lines” (Bioorg Med Chem Lett, 2016).

Tests used:
A549 = assay: Cytotoxicity against human A549 cells assessed as cell growth at 10^-7 M after 24 hrs by SRB assay; format: functional; conditions: A549, 24 h, read-out: Activity
[1] = Cytotoxicity against human MOLT4 cells assessed as cell growth at 10^-4 M after 24 hrs by SRB assay; format: functional; conditions: MOLT-4, 24 h, read-out: Activity
[2] = Cytotoxicity against human OVCAR8 cells assessed as cell growth at 10^-7 M after 24 hrs by SRB assay; format: functional; conditions: OVCAR-8, 24 h, read-out: Activity
[3] = Cytotoxicity against human NCI-ADR-RES cells assessed as cell growth at 10^-7 M after 24 hrs by SRB assay; format: functional; conditions: read-out: Activity
EKVX = assay: Cytotoxicity against human EKVX cells after 24 hrs by SRB assay; format: functional
[4] = Cytotoxicity against human HCT116 cells after 24 hrs by SRB assay; format: functional; conditions: HCT-116, 24 h
NCI-H522 = assay: Cytotoxicity against human NCI-H522 cells assessed as cell growth at 10^-4 M after 24 hrs by SRB assay; format: functional; conditions: NCI-H522, 24 h, read-out: Activity
[5] = Cytotoxicity against human COLO205 cells assessed as cell growth at 10^-4 M after 24 hrs by SRB assay; format: functional; conditions: COLO 205, 24 h, read-out: Activity
[6] = Cytotoxicity against human HL-60(TB) cells assessed as cell growth at 10^-6 M after 24 hrs by SRB assay; format: functional; conditions: HL-60, 24 h, read-out: Activity
SK-MEL-28 [7] = assay: Cytotoxicity against human SK-MEL-28 cells assessed as cell growth at 10^-4 M after 24 hrs by SRB assay; format: functional; conditions: SK-MEL-28, 24 h, read-out: Activity
[8] = Cytotoxicity against human NCI-ADR-RES cells assessed as cell growth at 10^-4 M after 24 hrs by SRB assay; format: functional; conditions: read-out: Activity
[9] = Cytotoxicity against human Caki1 cells assessed as cell growth at 10^-4 M after 24 hrs by SRB assay; format: functional; conditions: CAKI-1, 24 h, read-out: Activity
NCI-H23 = assay: Cytotoxicity against human NCI-H23 cells assessed as cell growth at 10^-6 M after 24 hrs by SRB assay; format: functional; conditions: NCI-H23, 24 h, read-out: Activity
[10] = Cytotoxicity against human HCT116 cells assessed as cell growth at 10^-6 M after 24 hrs by SRB assay; format: functional; conditions: HCT-116, 24 h, read-out: Activity
HT-29 = assay: Cytotoxicity against human HT-29 cells assessed as cell growth at 10^-6 M after 24 hrs by SRB assay; format: functional; conditions: HT-29, 24 h, read-out: Activity
[11] = Cytotoxicity against human UACC62 cells assessed as cell growth at 10^-6 M after 24 hrs by SRB assay; format: functional; conditions: UACC-62, 24 h, read-out: Activity
[12] = Cytotoxicity against human IGROV1 cells assessed as cell growth at 10^-6 M after 24 hrs by SRB assay; format: functional; conditions: IGROV-1, 24 h, read-out: Activity
MDA-MB-231 = assay: Cytotoxicity against human MDA-MB-231 cells assessed as cell growth at 10^-6 M after 24 hrs by SRB assay; format: functional; conditions: MDA-MB-231, 24 h, read-out: Activity
SK-MEL-28 [13] = assay: Cytotoxicity against human SK-MEL-28 cells after 24 hrs by SRB assay; format: functional, cell-based; conditions: SK-MEL-28, 24 h
[14] = Cytotoxicity against human IGROV1 cells after 24 hrs by SRB assay; format: functional; conditions: IGROV-1, 24 h
[15] = Cytotoxicity against human OVCAR8 cells after 24 hrs by SRB assay; format: functional; conditions: OVCAR-8, 24 h
[16] = Cytotoxicity against human HOP92 cells assessed as cell growth at 10^-8 M after 24 hrs by SRB assay; format: functional; conditions: HOP-92, 24 h, read-out: Activity
[17] = Cytotoxicity against human LOXIMVI cells assessed as cell growth at 10^-8 M after 24 hrs by SRB assay; format: functional; conditions: LOX IMVI, read-out: Activity
Malme-3M = assay: Cytotoxicity against human MALME-3M cells assessed as cell growth at 10^-8 M after 24 hrs by SRB assay; format: functional; conditions: read-out: Activity
MDA-MB-435 [18] = assay: Cytotoxicity against human MDA-MB-435 cells assessed as cell growth at 10^-8 M after 24 hrs by SRB assay; format: functional; conditions: MDA-MB-435, 24 h, read-out: Activity
[19] = Cytotoxicity against human OVCAR4 cells assessed as cell growth at 10^-8 M after 24 hrs by SRB assay; format: functional; conditions: OVCAR-4, 24 h, read-out: Activity
[20] = Cytotoxicity against human HOP92 cells assessed as cell growth at 10^-5 M after 24 hrs by SRB assay; format: functional; conditions: HOP-92, 24 h, read-out: Activity
NCI-H322M = assay: Cytotoxicity against human NCI-H322M cells assessed as cell growth at 10^-5 M after 24 hrs by SRB assay; format: functional; conditions: read-out: Activity
[21] = Cytotoxicity against human COLO205 cells assessed as cell growth at 10^-5 M after 24 hrs by SRB assay; format: functional; conditions: COLO 205, 24 h, read-out: Activity
[22] = Cytotoxicity against human SF268 cells assessed as cell growth at 10^-5 M after 24 hrs by SRB assay; format: functional; conditions: SF-268, 24 h, read-out: Activity
MDA-MB-435 [23] = assay: Cytotoxicity against human MDA-MB-435 cells assessed as cell growth at 10^-5 M after 24 hrs by SRB assay; format: functional; conditions: MDA-MB-435, 24 h, read-out: Activity
SK-MEL-28 [24] = assay: Cytotoxicity against human SK-MEL-28 cells assessed as cell growth at 10^-5 M after 24 hrs by SRB assay; format: functional; conditions: SK-MEL-28, 24 h, read-out: Activity
[25] = Cytotoxicity against human OVCAR5 cells assessed as cell growth at 10^-5 M after 24 hrs by SRB assay; format: functional; conditions: OVCAR-5, 24 h, read-out: Activity
A498 = assay: Cytotoxicity against human A498 cells assessed as cell growth at 10^-5 M after 24 hrs by SRB assay; format: functional; conditions: A498, 24 h, read-out: Activity
SN12C = assay: Cytotoxicity against human SN12C cells assessed as cell growth at 10^-5 M after 24 hrs by SRB assay; format: functional; conditions: read-out: Activity
[26] = read-out: LC50 (the source's name)
[27] = read-out: pLC50 (the source's name) (converted)

O=C(Nc1cc(-c2cccnc2)nc(NCCCN2CCOCC2)n1)c1cc(Br)cc(C(F)(F)F)c1
growth at 0.1 µM (A549): 109% | growth at 100 µM [1]: -67% | growth at 0.1 µM [2]: 101% | growth at 0.1 µM [3]: 99% | GI50 (EKVX; read-out: GI50): 2.72 µM | CC50 (EKVX; [26]): 42.7 µM | TGI (EKVX; read-out: TGI): 14.4 µM | GI50 (EKVX; read-out: pGI50 (converted)): 2.69 µM | CC50 (EKVX; [27]): 42.7 µM | TGI (EKVX; read-out: pTGI (converted)): 14.5 µM | GI50 ([4]; read-out: GI50): 2.09 µM | CC50 [4, 26]: 13.7 µM | TGI ([4]; read-out: TGI): 4.81 µM | GI50 ([4]; read-out: pGI50 (converted)): 2.09 µM | CC50 [4, 27]: 13.8 µM | TGI ([4]; read-out: pTGI (converted)): 4.79 µM | growth at 100 µM (NCI-H522): -82% | growth at 100 µM [5]: -88% | growth at 1 µM [6]: 88% | growth at 100 µM (SK-MEL-28 [7]): -77% | growth at 100 µM [8]: -77% | growth at 100 µM [9]: -100% | growth at 1 µM (NCI-H23): 89% | growth at 1 µM [10]: 94% | growth at 1 µM (HT-29): 94% | growth at 1 µM [11]: 90% | growth at 1 µM [12]: 92% | growth at 1 µM (MDA-MB-231): 87% | IC50 (SK-MEL-28 [13]): 1.73 µM | GI50 (SK-MEL-28 [13]; read-out: GI50): 1.73 µM | CC50 (SK-MEL-28 [13]; [26]): 7.02 µM | TGI (SK-MEL-28 [13]; read-out: TGI): 3.48 µM | GI50 (SK-MEL-28 [13]; read-out: pGI50 (converted)): 1.74 µM | CC50 (SK-MEL-28 [13]; [27]): 7.08 µM | TGI (SK-MEL-28 [13]; read-out: pTGI (converted)): 3.47 µM | GI50 ([14]; read-out: GI50): 4.67 µM | CC50 [14, 26]: 60.5 µM | TGI ([14]; read-out: TGI): 19.5 µM | GI50 ([14]; read-out: pGI50 (converted)): 4.68 µM | CC50 [14, 27]: 60.3 µM | TGI ([14]; read-out: pTGI (converted)): 19.5 µM | GI50 ([15]; read-out: GI50): 2.98 µM | CC50 [15, 26]: 39.4 µM | TGI ([15]; read-out: TGI): 8.59 µM | GI50 ([15]; read-out: pGI50 (converted)): 2.95 µM | CC50 [15, 27]: 39.8 µM | TGI ([15]; read-out: pTGI (converted)): 8.51 µM | growth at 0.01 µM [16]: 80% | growth at 0.01 µM [17]: 93% | growth at 0.01 µM (Malme-3M): 99% | growth at 0.01 µM (MDA-MB-435 [18]): 96% | growth at 0.01 µM [19]: 95% | growth at 10 µM [20]: -10% | growth at 10 µM (NCI-H322M): 19% | growth at 10 µM [21]: -79% | growth at 10 µM [22]: 1% | growth at 10 µM (MDA-MB-435 [23]): -90% | growth at 10 µM (SK-MEL-28 [24]): -75% | growth at 10 µM [25]: 40% | growth at 10 µM (A498): 13% | growth at 10 µM (SN12C): 44%
